Results: paper PMC7151078, “A Novel NMDA Receptor Antagonist Protects against Cognitive Decline Presented by Senescent Mice” (Pharmaceutics, 2020)

Legend:
[1] = Microsomal stability in rat microsomes; format: in vitro ADME; details: 37 °C, 0-60 min
Procedure: The human, rat, and mice microsomes employed were purchased from Tebu-Xenotech. The compound was incubated at 37 °C with the microsomes in a 50 mM phosphate buffer (pH = 7.4) containing 30 mM MgCl2, 10 mM NADP, 100 mM glucose-6-phosphate and 20 U/mL glucose-6-phosphate-dehydrogenase. Samples (75 µL) were taken from each well at 0, 10, 20, 40, and 60 min and transferred to a plate containing 4 °C 75 µL acetonitrile. Then, 30 µL of 0.5% formic acid in water was added to improve the chromatographic conditions. The plate was centrifuged (46,000× g, 30 min) and supernatants were taken and analyzed in a UPLC-MS/MS (Xevo-TQD, Waters) by employing a BEH C18 column and an isocratic gradient of 0.1% formic acid in water: 0.1% formic acid acetonitrile (60:40) for 5 minutes and a flow of 0.25 mL/min. The metabolic stability of the compounds was calculated from the logarithm of remaining compounds at each time point studied.

SAMR1 and SAMP8 mice = test: Object location test (OLT); format: in vivo, mouse; details: both treated mice groups (SR1 and SP8), 5 mg/kg/day
Procedure: Male SAMR1 and SAMP8 mice (n = 41) with 20-weeks-old were used to carry out cognitive and molecular analysis. The animals were randomly divided into four groups: SAMR1 control (SR1 Ct) group (n = 11), SAMP8 control (SP8 Ct) group (n = 8), SAMR1 treated with RL-208 (SR1 RL-208 (5 mg/Kg)) group (n = 10) and SAMP8 treated with RL-208 (SP8 RL-208 (5 mg/Kg)) group (n = 12). Animals had free access to food and water, under standard temperature conditions (22±2 °C) and 12h:12h light-dark cycles (300 lux/0 lux). RL-208, (3,4,8,9-tetramethyltetracyclo[4.4.0.0^3,9.0^4,8]dec-1-yl)-methylamine hydrochloride, (5 mg/kg/day) was administered through drinking water for four weeks before starting the cognitive test. RL-208 was administered up to euthanasia (Figure 1A). Water consumption was controlled each week for each cage and strain. Afterwards, RL-208 concentration was adjusted accordingly to reach the optimal dose for each cage. […] Trials were recorded using a camera mounted above the open field area, and the total exploration time was determined by scoring the amount of time (seconds) spent sniffing the object in the new location (TN) and the object in the old location (TO). In order to evaluate the cognitive performance, the DI was calculated, which is defined as (TN-TO)/(TN+TO).

CYP3A4 = target: T1, CYP3A4 (Homo sapiens, UniProt P08684); test: Cytochrome inhibition, fluorescent detection (7-BFC and DBF substrates); format: in vitro ADME
T1 construct: host or cells: insect cell microsomes
Procedure: To screen the inhibition potential of the compounds, recombinant human cytochrome P450 enzymes (CYP1A2, CYP2C9, CYP2C19, CYP2D6, and CYP3A4) and probe substrates were used with the fluorescent detection method. Incubations were conducted in 200-µL volume 96 well microtiter plates (COSTAR 3915). Addition of cofactor-buffer mixture (KH2PO4 buffer, 1.3 mM NADP+, 3.3 mM MgCl2, 3.3 mM Glucose-6-phosphate and 0.4 U/mL Glucose-6-phosphate Dehydrogenase), supersomes control, standard inhibitors (Furafyline, Tranylzypromine, Ketoconazole, Sulfaphenazole, and Quinidine; from Sigma Aldrich), and test compounds to plates were carried out using a a liquid handling station (Zephyr Caliper). The plate was then pre-incubated at 37 °C for 5 min, and the reaction initiated by the addition of pre-warmed enzyme/substrate (E/S) mix. […] Fluorescence per well was measured using a fluorescence plate reader (Tecan M1000 pro), and the percentage of inhibition was calculated.

T1 sequence (P08684 whole entry): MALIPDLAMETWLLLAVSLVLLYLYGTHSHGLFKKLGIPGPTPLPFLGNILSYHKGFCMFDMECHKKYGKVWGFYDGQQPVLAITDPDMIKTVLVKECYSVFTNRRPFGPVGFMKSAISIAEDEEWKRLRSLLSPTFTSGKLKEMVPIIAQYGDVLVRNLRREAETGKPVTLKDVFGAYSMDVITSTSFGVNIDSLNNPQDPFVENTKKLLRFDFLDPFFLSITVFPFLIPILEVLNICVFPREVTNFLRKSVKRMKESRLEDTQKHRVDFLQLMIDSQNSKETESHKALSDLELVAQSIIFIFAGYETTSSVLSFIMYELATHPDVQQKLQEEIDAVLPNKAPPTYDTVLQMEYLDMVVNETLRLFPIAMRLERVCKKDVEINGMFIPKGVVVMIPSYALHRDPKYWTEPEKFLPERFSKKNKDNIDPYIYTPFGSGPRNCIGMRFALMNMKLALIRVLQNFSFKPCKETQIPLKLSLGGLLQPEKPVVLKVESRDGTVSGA

microsomal stability [1]: good | CYP3A4 (BFC) inhibition (CYP3A4; recombinant human CYP3A4, substrate BFC): 35 ± 4% | CYP3A4 (DBF) inhibition (CYP3A4; recombinant human CYP3A4, substrate DBF): 3 ± 1%
Structure (SMILES): CC12CC3CC1(C)C1(C)CC3(CN)CC21C.Cl [RL-208, (3,4,8,9-tetramethyltetracyclo [4.4.0.0^3,9.0^4,8]dec-1-yl)methylamine hydrochloride]
OLT spatial memory (DI) (SAMR1 and SAMP8 mice): significant higher DI values
